Data as given in patent publication US9055743B2, “Alpha, beta-unsaturated imines” (BAYER INTELLECTUAL PROPERTY GMBH, priority 2010, dated 2015).

Experiments:
Format in all cases: in vivo
[1] = system: caterpillars of the army worm (Spodoptera frugiperda); assay: Spodoptera frugiperda test (SPODFR spray treatment); details: 500 g/ha, spray, after 7 days
Description: Spodoptera frugiperda Test (SPODFR Spray Treatment) Solvents: 78.0 parts by weight of acetone • • 1.5 parts by weight of dimethylformamide Emulsifier: 0.5 part by weight of alkylaryl polyglycol ether
(§1) To produce a suitable preparation of active compound, 1 part by weight of active compound is mixed with the stated amounts of solvents and emulsifier, and the concentrate is diluted with emulsifier-containing water to the desired concentration.
Discs of maize leaves (Zea mays) are sprayed with an active compound preparation of the desired concentration and, after drying, populated with caterpillars of the army worm (Spodoptera frugiperda) besetzt.
After 7 days, the activity in % is determined. 100% means that all caterpillars have been killed; 0% means that none of the caterpillars have been killed.

[2] = system: greenhouse red spider mite (Tetranychus urticae); assay: Tetranychus test; OP-resistant (TETRUR spray treatment); details: 500 g/ha, spray, after 6 days
Description: Tetranychus Test; OP-Resistant (TETRUR Spray Treatment) Solvents: 78.0 parts by weight of acetone • • 1.5 parts by weight of dimethylformamide Emulsifier: 0.5 part by weight of alkylaryl polyglycol ether
as §1
Discs of bean leaves (Phaseolus vulgaris) infested by all stages of the greenhouse red spider mite (Tetranychus urticae) are sprayed with an active compound preparation of the desired concentration.
After 6 days, the activity in % is determined. 100% means that all spider mites have been killed; 0% means that none of the spider mites have been killed.

[3] = system: Anopheles gambiae (homocygus kdr); assay: Anopheles test (ANPHGB surface treatment); details: exposition 30 minutes; for activity (mortality in %): 100 mg/m^2, 24 hours after contact; for knock-down activity: 100 mg/m^2, two hours after contact
Description: Anopheles Test (ANPHGB Surface Treatment) Solvent: Acetone
To produce a suitable preparation of active compound, the active compound is dissolved in acetone (2 mg/ml). The active compound preparation is pipetted onto a glazed tile and, after drying, adult mosquitoes of the species Anopheles gambiae (homocygus kdr) are placed onto the treated tile. The exposition time is 30 minutes.
Two hours after contact to the treated surface, the knock-down proportion of the test animals in % is determined.
24 hours after contact to the treated surface, the mortality in % is determined. Here, 100% means that all mosquitoes have been killed; 0% means that none of the mosquitoes has been killed.

[4] = system: larvae of the mustard beetle (Phaedon cochleariae); assay: Phaedon test (PHAECO spray treatment); details: 500 g/ha, spray, after 7 days
Description: Phaedon Test ([…] Spray Treatment) Solvents: 78.0 parts by weight of acetone • • 1.5 parts by weight of dimethylformamide Emulsifier: 0.5 part by weight of alkylaryl polyglycol ether To produce a suitable preparation of active compound, 1 part by weight of active compound is mixed with the stated amounts of solvents and emulsifiers, and the concentrate is diluted with emulsifier-containing water to the desired concentration. Discs of Chinese cabbage leaves (Brassica pekinensis) are sprayed with an active compound preparation of the desired concentration and, after drying, populated with larvae of the mustard beetle (Phaedon cochleariae).

[5] = system: green peach aphid (Myzus persicae); assay: Myzus test (MYZUPE spray treatment); details: 500 g/ha, spray, after 6 days
Description: Myzus Test (MYZUPE Spray Treatment) Solvents: 78 parts by weight of acetone • • 1.5 parts by weight of dimethylformamide Emulsifier: 0.5 part by weight of alkylaryl polyglycol ether
as §1
Discs of Chinese cabbage leaves (Brassica pekinensis) which are infested by all stages of the green peach aphid (Myzus persicae) are sprayed with an active compound preparation of the desired concentration.
After 6 days, the activity in % is determined. 100% means that all aphids have been killed; 0% means that none of the aphids have been killed.

Row | Structure (SMILES) | activity (caterpillars killed) [1] [%] | activity (spider mites killed) [2] [%] | activity (beetle larvae killed) [4] [%] | activity (aphids killed) [5] [%] | also measured
1 | Cc1ccc(N=C2c3cc(F)ccc3CCC2C(Sc2ccc(F)cc2)Sc2ccc(F)cc2)cc1 (stereo not shown) [Example 2-8] | 100 | 90 | – | – | –
2 | COc1ccc2c(c1C)OCC(=CSc1ccc(F)cc1)C2=Nc1ccc(C)cc1 [Example 1-52] | – | – | – | – | activity (mortality in %) [3]: 85%
3 | Cc1ccc(N=C2C(=CSc3ccccc3)CCC/C2=C\Sc2ccccc2)cc1 [Example 1-60, N-{2,6-Bis[(phenylsulphanyl)methylene]cyclohexylidene}-4-methylaniline] | – | – | – | – | pest or weed control at 500 g/ha ([4]; Phaedon cochleariae, 168 h, read-out: activity (beetle larvae killed)): 100%; pest or weed control at 500 g/ha ([1]; Spodoptera frugiperda, 168 h, read-out: activity (caterpillars killed)): 100%
4 | Cc1ccc(N=C2C(=CSc3ccc(F)cc3)CCc3c2ccc2ccccc32)cc1F [Example 1-92] | 100 | 100 | 100 | – | –
5 | Cc1ccc(N=C2C=CC(C)(C)CC2=CSc2ccc(F)cc2)cc1C [Example 1-64] | 100 | 80 | – | 80 | knock-down activity [3]: 100%
6 | Cc1ccc(N=C2C(=CSc3ccc(F)cc3)CCc3ccccc32)cc1C#N [Example 1-68] | 100 | 100 | 100 | – | –
7 | Cc1ccc(N=C2C(=CSc3ccc(F)cc3)C(C)c3cc(Cl)ccc32)cc1 (mixture of isomers) [Example 1-50] | – | – | – | – | knock-down activity [3]: 85%
8 | CC1=CC(C)(C)CC(=CSc2ccc(F)cc2)C1=Nc1ccc(C)cc1 [Example 1-93] | – | 90 | – | – | –
9 | Cc1cc(C)cc(N=C2C(=CSc3ccc(F)cc3)C(C)c3cc(C)ccc32)c1 (mixture of isomers) [Example 1-72] | 100 | – | – | – | –
10 | Cc1cccc(N=C2C(=CSc3ccccc3)C(C)c3ccccc32)c1 (mixture of isomers) [Example 1-12] | 100 | 100 | 100 | – | –
11 | COc1ccc(SC=C2CCc3ccccc3C2=Nc2ccc(C)cc2)cc1 [Example 1-73] | – | 80 | – | – | –
12 | CCOC1=CC(=CSc2ccccc2)C(=Nc2ccc(C)cc2)CC1 (mixture of isomers) [Example 1-97] | – | 100 | – | – | –
13 | Cc1ccc(N=C2c3ccccc3C(c3ccccc3)C2C(Sc2ccccc2)Sc2ccccc2)cc1 (mixture of isomers) [Example 2-9] | 100 | 100 | 100 | 100 | –
14 | Cc1ccc(N=C2C(=CSc3ccc(F)cc3)C(C)Oc3ccc(F)cc32)cc1 (stereo not shown) [Example 1-25] | 100 | – | – | – | –
15 | Cc1ccc(N=C2CCC(OC(C)C)=CC2=CSc2ccc(F)cc2)cc1 (mixture of isomers) [Example 1-99] | – | 100 | – | – | –
16 | Cc1ccc(N=C2C(=CSc3ccc(F)cc3)CCc3cc(C)cc(C)c32)cc1 [Example 1-77] | – | – | – | – | activity (mortality in %) [3]: 80%
17 | Cc1ccc(N=C2C(=CSc3ccc(F)cc3)CCc3sc(Cl)cc32)cc1 [Example 1-66] | 100 | – | 100 | – | –

Row | Structure (SMILES) | activity (caterpillars killed) [1] [%] | activity (spider mites killed) [2] [%] | activity (beetle larvae killed) [4] [%] | activity (aphids killed) [5] [%] | also measured
18 | Cc1ccc(N=C2C(Br)=CC(C)(C)CC2=CSc2ccc(F)cc2)cc1 [Example 1-49] | 100 | – | – | 90 | –
19 | Cc1ccc(N=C2C(=CSc3ccc(F)cc3)CCc3c(C)cc(C)cc32)cc1 [Example 1-30] | 100 | 80 | – | – | –
20 | Cc1ccc(N=C2C(=CSC3CCCC3)CCc3ccccc32)cc1 [Example 1-87] | – | 100 | 100 | 100 | knock-down activity [3]: 80%
21 | Cc1ccc(N=C2C(=CSc3ccc(F)cc3)COc3cc(-c4ccccc4)ccc32)cc1 [Example 1-24] | – | – | – | 90 | –
22 | CC(C)c1ccc(N=C2C(=CSc3ccc(F)cc3)CCc3ccccc32)cc1 [Example 1-42] | – | 80 | – | – | –
23 | Cc1cc(C)cc(N=C2C(=CSc3ccc(F)cc3)CCc3ccccc32)c1 [Example 1-67] | 100 | – | 100 | 80 | –
24 | c1ccc(N=C2c3ccccc3C(c3ccccc3)C2C(Sc2ccccc2)Sc2ccccc2)cc1 (mixture of isomers) [Example 2-10] | 100 | 100 | – | 100 | –
25 | Cc1ccc(N=C2C(=CSc3ccc(F)cc3)CCc3ccccc32)cc1F [Example 1-89] | 100 | 100 | 100 | – | knock-down activity [3]: 100%
26 | Cc1ccc(N=C2C(=CSc3ccc(F)cc3)CCc3cc(Cl)sc32)cc1 (mixture of isomers) [Example 1-91] | 100 | 100 | 100 | 90 | –
27 | Cc1ccc(N=C2C(=CSc3ccc(F)cc3)COc3cc(C(C)(C)C)ccc32)cc1 [Example 1-75] | 100 | – | – | – | –
28 | COc1ccc(N=C2c3ccccc3CCC2C(Sc2ccccc2)Sc2ccccc2)cc1 (stereo not shown) [Example 2-3] | – | – | – | – | activity (mortality in %) [3]: 95%
29 | Cc1ccc(N=C2c3ccc(F)cc3CCC2C(Sc2ccc(F)cc2)Sc2ccc(F)cc2)cc1 (stereo not shown) [Example 2-6] | – | – | – | – | activity (mortality in %) [3]: 95%
30 | C(Sc1ccccc1)=C1C(=Nc2ccccc2)c2ccccc2C1c1ccccc1 (mixture of isomers) [Example 1-19] | 100 | 100 | 100 | 100 | –
31 | CC1C(=CSc2ccccc2)C(=Nc2ccccc2)c2ccccc21 (mixture of isomers) [Example 1-13] | 100 | 100 | 100 | 100 | –
32 | Cc1ccc(N=C2C(=CSc3cccc(F)c3)CCc3ccccc32)cc1 [Example 1-78] | 100 | 100 | 100 | 100 | –
33 | Cc1ccc2c(c1)C(C)C(=CSc1ccc(F)cc1)C2=Nc1ccc(C)c(C)c1 (mixture of isomers) [Example 1-71] | 100 | 100 | 100 | 90 | knock-down activity [3]: 100%
